pIC50: −log10 of the molar value.
What was measured:
[1] = target: EGFR-wt (MDA-MB-231 or MCF7 or A549 or OVCAR8) (Homo sapiens (Human), UniProt P00533); assay: EGFR protein degradation assay (Western blot); assay type: cell-based; conditions: 72 hours, 300 nM to 10 nM
Method in brief: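 Cells carrying the relevant EGFR form were plated at 300,000 per well in 6-well plates and left overnight to attach. For harvest, cells were rinsed once in ice-cold PBS and lysed in 400 μl lysis buffer containing protease inhibitors. Lysates were cleared at 10 000 rpm for 10 minutes and their protein content measured by BCA. Then 10 μg per sample was separated by SDS/PAGE at 165V for 2 hours, and EGFR was detected by ECL on a Chemidoc.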

[2] = target: EGFR L858R/T790M double mutant (H1975) (Homo sapiens (Human), UniProt P00533, L858R/T790M); assay: EGFR protein degradation assay (Western blot); assay type: cell-based; conditions: 72 hours, 300 nM to 10 nM
Method in brief: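 Cells carrying the relevant EGFR form were plated at 300,000 cells per well in 6-well plates and left to attach overnight. After washing in ice-cold PBS, cells were lysed in 400 μl lysis buffer with protease inhibitors, scraped, and clarified at 10 000 rpm for 10 minutes. EGFR levels were then assessed by Western blot with tubulin as loading control.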

[3] = target: EGFR Exon 20 ASV (HeLa*) (Homo sapiens (Human), UniProt P00533, DUP767-769); assay: EGFR protein degradation assay (Western blot); assay type: cell-based; conditions: 72 hours, 300 nM to 10 nM
EGFR Exon 20 ASV (HeLa*), sequence (P00533 other isoform, or with tags, fused parts or gaps dup 767-769): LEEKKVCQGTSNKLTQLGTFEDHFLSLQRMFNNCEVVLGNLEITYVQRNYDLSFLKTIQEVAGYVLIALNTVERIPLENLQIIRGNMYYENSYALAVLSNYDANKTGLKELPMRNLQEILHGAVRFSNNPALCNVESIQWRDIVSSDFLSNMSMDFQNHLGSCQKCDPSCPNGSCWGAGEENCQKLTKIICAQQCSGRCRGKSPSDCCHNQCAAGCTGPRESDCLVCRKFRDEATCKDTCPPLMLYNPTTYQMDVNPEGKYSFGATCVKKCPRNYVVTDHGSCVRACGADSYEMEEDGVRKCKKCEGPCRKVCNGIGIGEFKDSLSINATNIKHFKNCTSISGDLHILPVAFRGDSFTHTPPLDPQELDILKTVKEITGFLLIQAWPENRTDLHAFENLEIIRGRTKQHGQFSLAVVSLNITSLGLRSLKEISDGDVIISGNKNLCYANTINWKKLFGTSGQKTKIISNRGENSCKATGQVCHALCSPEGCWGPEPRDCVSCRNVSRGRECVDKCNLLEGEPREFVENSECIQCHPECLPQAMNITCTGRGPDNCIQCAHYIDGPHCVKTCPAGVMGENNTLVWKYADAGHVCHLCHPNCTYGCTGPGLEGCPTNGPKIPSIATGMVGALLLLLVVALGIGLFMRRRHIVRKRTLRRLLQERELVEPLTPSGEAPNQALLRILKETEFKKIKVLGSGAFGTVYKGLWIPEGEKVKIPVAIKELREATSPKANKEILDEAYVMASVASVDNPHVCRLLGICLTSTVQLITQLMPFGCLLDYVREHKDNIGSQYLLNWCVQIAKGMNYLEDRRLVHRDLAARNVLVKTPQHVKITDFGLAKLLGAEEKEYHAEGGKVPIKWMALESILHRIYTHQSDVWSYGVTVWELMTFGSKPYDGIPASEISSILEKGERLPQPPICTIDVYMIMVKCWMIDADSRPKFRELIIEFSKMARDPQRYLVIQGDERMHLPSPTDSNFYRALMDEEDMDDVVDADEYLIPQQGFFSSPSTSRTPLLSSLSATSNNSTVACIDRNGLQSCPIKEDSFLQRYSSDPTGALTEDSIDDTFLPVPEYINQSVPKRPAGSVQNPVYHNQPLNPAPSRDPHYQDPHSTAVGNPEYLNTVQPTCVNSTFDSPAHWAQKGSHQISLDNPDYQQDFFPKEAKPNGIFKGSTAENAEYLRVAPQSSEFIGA

[4] = target: EGFR Δ19/746/750 T790M (Homo sapiens (Human), UniProt P00533, DEL746-750/T790M); assay: TR-FRET assay for ERBB kinases; assay type: biochemical; conditions: geometric mean if measured more than once
EGFR Δ19/746/750 T790M, sequence (P00533 other isoform, or with tags, fused parts or gaps T790M/del 1-694/del 746-750 limits assumed): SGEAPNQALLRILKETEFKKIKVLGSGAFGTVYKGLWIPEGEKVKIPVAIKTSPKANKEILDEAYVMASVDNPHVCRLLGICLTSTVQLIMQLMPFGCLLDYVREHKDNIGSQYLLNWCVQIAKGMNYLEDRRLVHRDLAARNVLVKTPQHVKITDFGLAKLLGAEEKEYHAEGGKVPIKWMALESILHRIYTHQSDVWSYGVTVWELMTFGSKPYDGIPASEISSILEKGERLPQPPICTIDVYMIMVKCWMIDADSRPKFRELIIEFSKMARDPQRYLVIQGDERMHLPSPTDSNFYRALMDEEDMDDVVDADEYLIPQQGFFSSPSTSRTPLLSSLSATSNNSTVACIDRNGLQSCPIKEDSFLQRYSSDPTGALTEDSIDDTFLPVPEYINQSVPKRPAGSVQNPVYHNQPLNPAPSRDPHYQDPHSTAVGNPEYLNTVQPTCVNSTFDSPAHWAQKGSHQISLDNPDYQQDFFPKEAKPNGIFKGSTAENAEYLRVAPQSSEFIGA
Method in brief: (§1)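 Compounds pre-incubated 10 min with kinase in HEPES pH 7.5 buffer (MgCl2, DTT, Pluronic), then reaction started with substrate mix (3 mM ATP, 30 µM fluorescein-poly-GluTyr, stock levels) for 10 min at room temperature. EDTA-quenched, detected by Tb-pY20 antibody TR-FRET (520/490 nm emission).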

[5] = target: EGFR Exon20NPG (Homo sapiens (Human), UniProt P00533, INS770NPG); assay: TR-FRET assay for ERBB kinases; assay type: biochemical; conditions: geometric mean if measured more than once
EGFR Exon20NPG, sequence (P00533 other isoform, or with tags, fused parts or gaps del 1-694/ins NPG behind 770 limits assumed): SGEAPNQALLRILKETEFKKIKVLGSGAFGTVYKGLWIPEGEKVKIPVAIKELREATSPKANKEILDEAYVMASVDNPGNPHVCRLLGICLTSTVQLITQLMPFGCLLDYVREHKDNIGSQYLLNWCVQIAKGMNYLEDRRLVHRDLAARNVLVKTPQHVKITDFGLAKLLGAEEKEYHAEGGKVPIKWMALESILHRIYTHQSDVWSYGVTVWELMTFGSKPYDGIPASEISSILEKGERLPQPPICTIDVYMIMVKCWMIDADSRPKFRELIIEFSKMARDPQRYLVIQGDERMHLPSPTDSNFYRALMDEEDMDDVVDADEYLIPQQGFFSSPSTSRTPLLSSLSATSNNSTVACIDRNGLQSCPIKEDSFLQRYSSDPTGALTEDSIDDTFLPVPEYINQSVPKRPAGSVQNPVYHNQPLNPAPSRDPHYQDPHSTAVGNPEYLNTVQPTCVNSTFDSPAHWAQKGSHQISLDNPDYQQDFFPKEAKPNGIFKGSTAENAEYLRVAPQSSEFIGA
Method in brief: as §1

[6] = target: EGFR Δ19/746/750 (Homo sapiens (Human), UniProt P00533, DEL746-750); assay: TR-FRET assay for ERBB kinases; assay type: biochemical; conditions: geometric mean if measured more than once
EGFR Δ19/746/750, sequence (P00533 other isoform, or with tags, fused parts or gaps del 1-694/del 746-750 limits assumed): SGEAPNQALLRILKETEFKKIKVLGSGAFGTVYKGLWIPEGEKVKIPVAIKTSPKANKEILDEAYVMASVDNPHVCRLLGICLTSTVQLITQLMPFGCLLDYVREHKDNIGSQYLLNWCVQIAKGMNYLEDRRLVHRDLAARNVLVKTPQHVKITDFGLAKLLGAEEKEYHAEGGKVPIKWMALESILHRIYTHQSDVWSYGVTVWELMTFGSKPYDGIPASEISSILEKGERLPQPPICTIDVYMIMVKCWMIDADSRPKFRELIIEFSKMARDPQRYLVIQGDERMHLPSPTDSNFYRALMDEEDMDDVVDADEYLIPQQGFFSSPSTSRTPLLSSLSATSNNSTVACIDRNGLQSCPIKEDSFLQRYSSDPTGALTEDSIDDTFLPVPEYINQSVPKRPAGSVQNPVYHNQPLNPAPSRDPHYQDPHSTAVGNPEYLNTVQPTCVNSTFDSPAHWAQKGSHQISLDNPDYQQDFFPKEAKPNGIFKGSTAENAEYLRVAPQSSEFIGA
Method in brief: as §1

[7] = target: HER2WT (Homo sapiens (Human), UniProt P04626); assay: TR-FRET assay for ERBB kinases; assay type: biochemical; conditions: geometric mean if measured more than once
Method in brief: as §1

[8] = target: EGFR L858R (Homo sapiens (Human), UniProt P00533, L858R); assay: TR-FRET assay for ERBB kinases; assay type: biochemical; conditions: geometric mean if measured more than once
EGFR L858R, sequence (P00533 25-1210 L858R): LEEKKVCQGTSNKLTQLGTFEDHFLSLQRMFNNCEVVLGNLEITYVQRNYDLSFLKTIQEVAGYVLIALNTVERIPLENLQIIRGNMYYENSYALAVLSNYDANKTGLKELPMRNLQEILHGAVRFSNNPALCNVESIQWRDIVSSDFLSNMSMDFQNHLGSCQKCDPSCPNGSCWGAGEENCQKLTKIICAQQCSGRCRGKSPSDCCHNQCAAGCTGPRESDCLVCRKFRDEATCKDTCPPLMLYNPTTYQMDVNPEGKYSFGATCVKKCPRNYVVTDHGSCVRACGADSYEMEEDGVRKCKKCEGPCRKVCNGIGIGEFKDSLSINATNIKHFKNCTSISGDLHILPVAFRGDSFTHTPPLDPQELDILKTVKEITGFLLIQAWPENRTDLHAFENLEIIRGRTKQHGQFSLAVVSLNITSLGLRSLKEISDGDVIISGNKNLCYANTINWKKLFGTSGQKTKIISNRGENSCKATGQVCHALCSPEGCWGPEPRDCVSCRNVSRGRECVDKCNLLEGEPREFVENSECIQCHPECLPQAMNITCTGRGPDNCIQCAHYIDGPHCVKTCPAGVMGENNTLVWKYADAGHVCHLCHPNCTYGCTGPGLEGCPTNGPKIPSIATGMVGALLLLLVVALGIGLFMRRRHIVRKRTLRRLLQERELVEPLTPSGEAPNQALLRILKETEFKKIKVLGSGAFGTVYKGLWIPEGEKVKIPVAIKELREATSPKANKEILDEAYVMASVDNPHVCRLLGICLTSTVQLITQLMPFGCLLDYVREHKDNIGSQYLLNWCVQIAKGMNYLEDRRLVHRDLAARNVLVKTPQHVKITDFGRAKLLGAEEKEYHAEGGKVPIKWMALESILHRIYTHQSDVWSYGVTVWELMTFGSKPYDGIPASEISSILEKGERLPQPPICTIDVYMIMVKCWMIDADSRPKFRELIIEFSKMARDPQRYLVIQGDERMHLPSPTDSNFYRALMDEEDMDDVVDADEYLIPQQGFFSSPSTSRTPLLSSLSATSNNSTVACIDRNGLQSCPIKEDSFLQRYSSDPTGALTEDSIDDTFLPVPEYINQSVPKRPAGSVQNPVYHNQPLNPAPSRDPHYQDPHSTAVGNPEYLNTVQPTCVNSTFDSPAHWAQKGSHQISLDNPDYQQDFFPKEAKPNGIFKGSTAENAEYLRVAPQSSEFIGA
Method in brief: as §1

[9] = target: EGFR WT (Homo sapiens (Human), UniProt P00533); assay: TR-FRET assay for ERBB kinases; assay type: biochemical; conditions: geometric mean if measured more than once
Method in brief: (§2)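 Read-out is TR-FRET between a terbium anti-phosphotyrosine (pY20) antibody and phosphorylated fluorescein-labelled poly-GluTyr, excited at 340 nm with donor 490 nm and acceptor 520 nm emission. Phosphorylation ran 10 min at room temperature after a 10 min compound–enzyme pre-incubation. The substrate mix contained 3 mM ATP.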

[10] = target: EGFR L858R/T790M/C797S (Homo sapiens (Human), UniProt P00533, C797S/L858R/T790M); assay: TR-FRET assay for ERBB kinases; assay type: biochemical; conditions: geometric mean if measured more than once
Method in brief: as §2

[11] = target: EGFR L858R/T790M (Homo sapiens (Human), UniProt P00533, L858R/T790M); assay: TR-FRET assay for ERBB kinases; assay type: biochemical; conditions: geometric mean if measured more than once
Method in brief: as §2

EGFR-wt (MDA-MB-231 or MCF7 or A549 or OVCAR8), sequence (P00533 25-1210): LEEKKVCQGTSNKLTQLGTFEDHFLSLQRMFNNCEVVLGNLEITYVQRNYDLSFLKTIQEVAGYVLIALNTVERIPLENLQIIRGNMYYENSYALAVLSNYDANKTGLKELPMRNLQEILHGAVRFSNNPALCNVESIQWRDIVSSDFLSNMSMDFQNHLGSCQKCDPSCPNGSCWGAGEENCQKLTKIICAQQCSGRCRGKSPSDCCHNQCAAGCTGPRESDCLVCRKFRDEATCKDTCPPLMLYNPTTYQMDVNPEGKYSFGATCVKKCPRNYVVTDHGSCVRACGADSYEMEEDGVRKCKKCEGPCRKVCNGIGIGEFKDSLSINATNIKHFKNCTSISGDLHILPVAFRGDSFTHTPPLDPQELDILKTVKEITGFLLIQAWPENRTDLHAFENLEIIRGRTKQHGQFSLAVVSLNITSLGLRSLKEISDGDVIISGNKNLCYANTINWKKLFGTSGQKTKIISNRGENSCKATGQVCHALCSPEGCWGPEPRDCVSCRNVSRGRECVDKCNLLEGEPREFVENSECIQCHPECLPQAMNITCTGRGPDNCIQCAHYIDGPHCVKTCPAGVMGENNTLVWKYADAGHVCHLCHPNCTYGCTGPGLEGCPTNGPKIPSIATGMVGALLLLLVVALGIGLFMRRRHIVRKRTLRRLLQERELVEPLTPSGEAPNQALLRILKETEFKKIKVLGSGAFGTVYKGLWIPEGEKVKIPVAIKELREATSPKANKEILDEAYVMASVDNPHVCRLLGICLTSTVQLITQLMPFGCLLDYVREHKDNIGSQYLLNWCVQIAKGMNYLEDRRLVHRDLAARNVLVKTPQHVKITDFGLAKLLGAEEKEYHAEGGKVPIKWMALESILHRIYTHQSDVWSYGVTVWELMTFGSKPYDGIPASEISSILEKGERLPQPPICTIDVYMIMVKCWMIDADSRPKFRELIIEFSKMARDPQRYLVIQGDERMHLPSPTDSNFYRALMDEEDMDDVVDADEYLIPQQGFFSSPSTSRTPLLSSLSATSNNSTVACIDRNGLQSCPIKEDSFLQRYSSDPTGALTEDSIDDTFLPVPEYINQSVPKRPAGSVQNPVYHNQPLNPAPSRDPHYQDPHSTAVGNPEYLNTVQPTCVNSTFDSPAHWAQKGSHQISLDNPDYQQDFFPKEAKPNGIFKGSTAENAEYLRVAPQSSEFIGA

Row | Structure (SMILES) | EGFR protein remaining, EGFR-wt [1] | EGFR protein remaining, EGFR L858R/T790M double mutant [2] | EGFR protein remaining, EGFR Exon 20 ASV [3] | pIC50 [4] | pIC50 [5] | pIC50 [6] | pIC50 [7] | pIC50 [8] | pIC50 [9] | pIC50 [10] | pIC50 [11]
1 | Cc1ncsc1-c1ccc(CNC(=O)[C@@H]2C[C@@H](O)CN2C(=O)[C@@H](NC(=O)COCCOCCOCCN2CCN(Cc3ccc(-c4cc5c(NCc6ccccc6Cl)ncnc5[nH]4)cc3)CC2)C(C)(C)C)cc1 [Example 1, (2S,4R)-1-((S)-2-(tert-butyl)-14-(4-(4-(4-((2-chlorobenzyl)amino)-7H-pyrrolo[2,3-d]pyrimidin-6-yl)benzyl)piperazin-1-yl)-4-oxo-6,9,12-trioxa-3-azatetradecanoyl)-4-hydroxy-N-(4-(4-methylthiazol-5-yl)benzyl)pyrrolidine-2-carboxamide] | C (>80% EGFR protein remaining after 72 hours of incubation with the test compound at a concentration of 300 nM) | C (>80% EGFR protein remaining after 72 hours of incubation with the test compound at a concentration of 300 nM) | C (>80% EGFR protein remaining after 72 hours of incubation with the test compound at a concentration of 300 nM) | 5.21 | 6.64 | 8.68 | 5.92 | 7.85 | 7.19 | 5.35 | 4.92
2 | Cc1ncsc1-c1ccc(CNC(=O)[C@@H]2C[C@@H](O)CN2C(=O)[C@@H](NC(=O)COCCOCCOCCOCCOCCN2CCN(Cc3ccc(-c4cc5c(NCc6ccccc6Cl)ncnc5[nH]4)cc3)CC2)C(C)(C)C)cc1 [compound 3] | C (>80% EGFR protein remaining after 72 hours of incubation with the test compound at a concentration of 300 nM) | C (>80% EGFR protein remaining after 72 hours of incubation with the test compound at a concentration of 300 nM) | C (>80% EGFR protein remaining after 72 hours of incubation with the test compound at a concentration of 300 nM) | 5.18 | 6.07 | 8.26 | 5.82 | 7.62 | 6.68 | 4.85 | 4.85
3 | O=C1CCC(N2C(=O)c3cccc(NCCOCCOCCN4CCN(Cc5ccc(-c6cc7c(NCc8ccccc8Cl)ncnc7[nH]6)cc5)CC4)c3C2=O)C(=O)N1 (stereo not drawn) [compound 9] | C (>80% EGFR protein remaining after 72 hours of incubation with the test compound at a concentration of 300 nM) | – | C (>80% EGFR protein remaining after 72 hours of incubation with the test compound at a concentration of 300 nM) | 5.41 | 6.59 | 8.72 | 6.23 | 8.31 | 7.57 | 5.51 | 5.17
4 | O=C1CCC(N2C(=O)c3cccc(NCCOCCOCCOCCOCCOCCN4CCN(Cc5ccc(-c6cc7c(NCc8ccccc8Cl)ncnc7[nH]6)cc5)CC4)c3C2=O)C(=O)N1 (stereo not drawn) [Example 8, 4-((17-(4-(4-(4-((2-chlorobenzyl)amino)-7H-pyrrolo[2,3-d]pyrimidin-6-yl)benzyl)piperazin-1-yl)-3,6,9,12,15-pentaoxaheptadecyl)amino)-2-(2,6-dioxopiperidin-3-yl)isoindoline-1,3-dione] | C (>80% EGFR protein remaining after 72 hours of incubation with the test compound at a concentration of 300 nM) | – | C (>80% EGFR protein remaining after 72 hours of incubation with the test compound at a concentration of 300 nM) | 5.32 | 6.35 | 8.77 | 5.92 | 7.96 | 7.05 | 5.49 | 5.14

Source: patent US10994015B2, “EGFR proteolysis targeting chimeric molecules and associated methods of use” (Arvinas Operations, Inc., priority 2016, dated 2021)
